Patent publication US8178091B2, “Compositions and methods for the treatment of respiratory disorders” (University of Washington, priority 2007, dated 2012)
“Also recorded” adds a separate entry of the source. Like-named read-outs stand apart in the source and are kept apart here.

Columns and labels:
[1] = oxidation; cited from earlier work
[2] = target: T1, IGF-1R (Homo sapiens, UniProt P08069); details: cited from earlier work
[3] = target: T1, IGF-1R; details: cited from earlier work; remark: listed apart in the source
[4] = tested on: PDGFR; details: intact cells; cited from earlier work
[5] = tested on: primary mouse lung fibroblasts; test: migration assay (FluoroBlok transwell); type: cell-based, C57BL6 mice
Experimental: Mouse lung fibroblasts were plated FluoroBlok transwell filters overnight, then IGF-1 (100 ng/ml), serum free media (negative control), 10% serum (positive control) was added to lower chamber. Some cells were preincubated with the blocking antibody to IGF-1R (A12, 40 μg/ml) before the addition of IGF-1. Cells were allowed to migrate through membrane for 4 hours @ 37° C. Migrated cells were counted with Fluorescent microscope. Each experiments was done in triplicate and repeated at least three times. Average cell count ±SD are presented.
For migration assays, primary mouse lung fibroblasts (50,000 cells/well) were plated in serum-free medium overnight on Fluoroblok transwell filters (8 μm pores, HTS FluoroBlok™ 24-Multiwell Insert System, BD Bioscience, Bedford, Mass.) pre-coated with fibronectin (50 μg/ml). Fluoroblok microporous membranes are specifically designed to detect by fluorescence only cells below the surface membrane. IGF-1 (100 ng/ml), 10% FBS (positive control) or serum-free media (negative control) was added to lower chamber. In some experiments, cells were preincubated with the blocking antibody to IGF-1R (A12, 40 μg/ml), for 1 hour. After 4 hours of migration, filters were fixed with formaldehyde and stained with DAPI (4′6-Diamidine-2′-phenylindole dihydrochloride, Roche, Indianapolis, Ind.). Migrated cells were counted in three predesignated fields for each filter. All experiments were done in triplicate and repeated at least three times.

[6] = target: IR (Homo sapiens, UniProt P06213); details: even at high concentrations; cited from earlier work
Sequence of IR (Homo sapiens, UniProt P06213) (P06213 28-1382): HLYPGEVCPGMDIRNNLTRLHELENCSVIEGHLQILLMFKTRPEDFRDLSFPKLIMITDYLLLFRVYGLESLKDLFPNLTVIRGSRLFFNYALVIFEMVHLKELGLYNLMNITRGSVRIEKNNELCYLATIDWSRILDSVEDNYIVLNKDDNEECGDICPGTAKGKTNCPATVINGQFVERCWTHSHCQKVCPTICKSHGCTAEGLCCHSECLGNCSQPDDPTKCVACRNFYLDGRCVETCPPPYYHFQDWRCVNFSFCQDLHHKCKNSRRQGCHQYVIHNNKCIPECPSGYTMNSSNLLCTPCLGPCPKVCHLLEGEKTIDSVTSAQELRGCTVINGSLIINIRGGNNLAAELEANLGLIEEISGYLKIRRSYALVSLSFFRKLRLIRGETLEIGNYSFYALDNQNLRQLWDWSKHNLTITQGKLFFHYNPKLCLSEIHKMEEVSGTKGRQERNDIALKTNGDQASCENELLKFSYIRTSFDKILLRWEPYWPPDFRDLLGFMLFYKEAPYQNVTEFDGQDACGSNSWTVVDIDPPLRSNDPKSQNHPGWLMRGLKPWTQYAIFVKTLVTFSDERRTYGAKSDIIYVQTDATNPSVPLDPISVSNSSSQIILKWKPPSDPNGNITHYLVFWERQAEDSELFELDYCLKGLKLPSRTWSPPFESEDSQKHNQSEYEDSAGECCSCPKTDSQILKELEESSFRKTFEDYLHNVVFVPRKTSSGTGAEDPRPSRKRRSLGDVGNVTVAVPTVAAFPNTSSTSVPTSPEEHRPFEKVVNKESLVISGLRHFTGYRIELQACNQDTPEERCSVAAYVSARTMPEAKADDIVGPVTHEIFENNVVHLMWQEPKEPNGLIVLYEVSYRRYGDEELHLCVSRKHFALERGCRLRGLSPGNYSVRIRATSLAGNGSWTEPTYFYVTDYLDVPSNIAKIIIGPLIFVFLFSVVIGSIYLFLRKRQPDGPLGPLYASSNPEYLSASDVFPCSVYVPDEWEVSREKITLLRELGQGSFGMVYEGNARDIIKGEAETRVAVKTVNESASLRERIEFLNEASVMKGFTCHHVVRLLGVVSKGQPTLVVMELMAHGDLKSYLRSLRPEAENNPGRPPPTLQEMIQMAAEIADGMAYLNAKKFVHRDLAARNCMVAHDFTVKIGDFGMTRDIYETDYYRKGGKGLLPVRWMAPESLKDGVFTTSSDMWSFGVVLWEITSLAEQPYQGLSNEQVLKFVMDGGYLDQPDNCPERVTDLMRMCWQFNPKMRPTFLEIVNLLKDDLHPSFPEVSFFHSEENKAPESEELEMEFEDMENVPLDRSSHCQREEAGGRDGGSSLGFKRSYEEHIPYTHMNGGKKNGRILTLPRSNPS

[7] = rats; cited from earlier work
[8] = target: T1, IGF-1R; details: cited from earlier work; remark: listed apart in the source
[9] = tested on: IGF-1R-positive tumors; details: mice; cited from earlier work
[10] = tested on: β-tubulin; details: interaction with β-tubulin, mitotic arrest; cited from earlier work
[11] = tested on: tumors; details: nude mice; cited from earlier work
[12] = target: T1, IGF-1R; details: cited from earlier work; remark: listed apart in the source
[13] = tested on: IR; details: in vivo; cited from earlier work
[14] = tested on: primary mouse lung fibroblasts; test: proliferation assay (MTT); type: cell-based, C57BL6 mice
Experimental: Mouse lung fibroblasts from saline-treated mice (A) or bleomycin-treated mice (B) were plated in triplicate and serum-starved overnight followed by addition of IGF-1 (100 ng/ml), serum-free media (negative control), 10% FBS (positive control), and then incubated for indicated time. Cell proliferation was measured by MTT assay. Data are shown as mean OD570 nm±SD and are average of at least 4 independent experiments.
For proliferation assays, primary mouse lung fibroblasts were plated at 10,000 cells/100 μl in 96-well plates. After initial adhesion, medium was changed to serum free overnight and then IGF-1 (100 ng/ml) was added. As a positive control, cells were grown in 10% FBS; as a negative control, cell were grown in serum-free media. Cell proliferation was assayed at 48, 72 or 96 hours by colorimetric methyl thiazolyl tetrazolium (MTT) assay per manufacturer's direction (Qiang et al., Blood 103:301-308 (2004)). Optical density of plates was read on a Spectra Max 250 (Molecular Device, Sunnyvale, Calif.) at 570 nm. All experiments were done in triplicate and repeated three times.

[15] = tested on: mouse lung fibroblasts; test: Western blot of signaling in IGF-stimulated lung fibroblasts; type: cell-based; details: IGF-1 100 ng/ml
Experimental: Tyrosine phosphorylation of receptor tyrosine kinase substrates was evaluated. Mouse lung fibroblasts were serum-starved overnight and then stimulated with IGF-1 (100 ng/ml) for indicated times. Cells were lysed, and proteins separated by SDS-PAGE. Each membrane was blotted with indicated phospho-antibody then stripped and reblotted with antibody to total protein. Substrates include IGF-1R, IRS-1 and IRS-2. The tyrosine phosphorylated forms of the substrates are indicated by pIGF-1R, pIRS-1 and pIRS-2, respectively.
Tyrosine phosphorylation of receptor tyrosine kinase substrates was evaluated. Substrates include AKT, ERK. The tyrosine phosphorylated forms of the substrates are indicated by pAKT, pERK, respectively.
For Western Blot analyses, cells were grown to 70% confluence, placed in serum free medium overnight and then IGF-1 (100 ng/ml) was added for 5, 10, 15, 30 and 60 minutes. At indicated time points, cells were washed in ice-cold PBS and lysed in buffer containing 100 mM Tri-HCl (pH 7.4), 150 mM NaCl, 1 mM CaCl2, 0.1% SDS, 1% Triton-X, 0.1% NP-40, 1 mM […] (sodium vanadate), 1 mM NaF (sodium Fluoride) and protease inhibitor cocktail tablet (Roche). Protein concentrations were determined by the BCA assay (Pierce). Equal amounts of protein were separated by sodium dodecyl sulfate-polyacrylamide gel electrophoresis (SDS-PAGE), and electrophoretically transferred to PVDF membrane. Membranes were blocked with 5% nonfat dry milk/0.05% Tween-20/PBS for 2 hours, incubated with primary antibody for 2 hours at room temperature, washed with 0.05% Tween-20/PBS, incubated with horseradish peroxidase-conjugated secondary antibody (1:5000) for 2 h, washed with 0.05% Tween-20/PBS and then developed with enhanced chemiluminescence (ECL) technique (Amersham, England).

[16] = tested on: primary normal human lung fibroblasts; test: apoptosis assay (Cell Death Detection ELISA-plus), lung fibroblasts; type: cell-based; details: serum starvation, increasing concentrations
Experimental: (§1) A: Normal human lung fibroblast or distal lung epithelial cells were serum-starved overnight and then incubated with indicated concentration of IGF-1R antibody or IGFBP-3 overnight. B: A549 cells were serum-starved and incubated with IGF-1R antibody (136 μg/ml) with or without the indicated concentration of Fas ligand. Apoptosis was measured by Cell Death ELISA-plus ELISA (Roche Applied Science) per the manufacturer's directions. All experiments were done in triplicate and repeated at least twice. Apoptosis index is defined as the ratio of experimental condition OD405 nm: control (media alone) OD405 nm.
(§2) Primary normal human lung fibroblasts (Clonetics, Cambrex Bioscience, Rockland, Me.), primary distal lung human epithelial cells (Clonetics) or A549 (American Type Culture Collection, Manassas, Va.) were seeded in a 96-well tissue culture plate (2×10^4 cells/well) overnight and serum-starved for 24 hours. […] After 48 hours, apoptosis was measured. To prevent detached cells from being aspirated, plates were centrifuged at 200×g for 10 minutes, and apoptosis was measured using the Cell Death Detection ELISA-plus System (Roche Applied Science, Penzberg, Germany), which detects cytosolic histone-complexed DNA fragments. […]

[17] = tested on: primary distal lung human epithelial cells; test: apoptosis assay (Cell Death Detection ELISA-plus), lung epithelial cells; type: cell-based; details: serum starvation, increasing concentrations
Experimental: as §1, §2

[18] = tested on: human IGF-1R mRNA; details: cited from earlier work

T1 sequence (P08069 31-1367, species assumed): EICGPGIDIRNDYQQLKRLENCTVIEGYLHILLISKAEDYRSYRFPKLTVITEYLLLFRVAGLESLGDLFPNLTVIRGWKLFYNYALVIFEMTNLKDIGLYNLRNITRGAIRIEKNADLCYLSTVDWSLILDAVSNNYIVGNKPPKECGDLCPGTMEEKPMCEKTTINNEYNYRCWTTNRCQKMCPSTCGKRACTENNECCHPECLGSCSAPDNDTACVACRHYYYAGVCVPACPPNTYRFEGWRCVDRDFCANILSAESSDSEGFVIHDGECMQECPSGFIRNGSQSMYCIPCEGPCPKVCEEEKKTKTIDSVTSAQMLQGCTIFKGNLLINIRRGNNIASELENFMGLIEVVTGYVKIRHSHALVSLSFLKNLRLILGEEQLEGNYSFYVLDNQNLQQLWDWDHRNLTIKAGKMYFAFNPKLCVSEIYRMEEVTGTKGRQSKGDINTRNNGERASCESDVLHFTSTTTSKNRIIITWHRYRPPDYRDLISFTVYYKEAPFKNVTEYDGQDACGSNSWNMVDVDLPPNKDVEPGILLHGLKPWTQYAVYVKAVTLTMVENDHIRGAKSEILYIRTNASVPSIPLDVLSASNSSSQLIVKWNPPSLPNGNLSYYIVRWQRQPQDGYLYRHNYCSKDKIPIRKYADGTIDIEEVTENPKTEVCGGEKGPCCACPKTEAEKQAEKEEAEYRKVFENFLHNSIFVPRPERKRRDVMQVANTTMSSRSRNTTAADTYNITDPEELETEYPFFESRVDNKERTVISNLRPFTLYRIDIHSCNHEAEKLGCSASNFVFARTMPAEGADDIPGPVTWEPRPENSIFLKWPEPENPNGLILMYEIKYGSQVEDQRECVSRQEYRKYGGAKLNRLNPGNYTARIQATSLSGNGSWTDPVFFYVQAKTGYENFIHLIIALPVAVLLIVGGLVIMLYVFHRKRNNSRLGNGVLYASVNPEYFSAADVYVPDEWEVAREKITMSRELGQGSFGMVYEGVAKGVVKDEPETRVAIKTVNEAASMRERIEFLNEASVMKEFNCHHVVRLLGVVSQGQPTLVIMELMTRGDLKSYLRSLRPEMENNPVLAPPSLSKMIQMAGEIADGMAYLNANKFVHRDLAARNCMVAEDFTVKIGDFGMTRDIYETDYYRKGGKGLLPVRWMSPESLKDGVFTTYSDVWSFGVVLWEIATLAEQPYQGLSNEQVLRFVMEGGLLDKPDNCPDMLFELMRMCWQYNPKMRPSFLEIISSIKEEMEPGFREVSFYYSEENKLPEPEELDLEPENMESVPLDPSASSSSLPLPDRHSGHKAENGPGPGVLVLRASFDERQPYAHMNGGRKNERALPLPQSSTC

N#C/C(=C\c1ccc(O)c(O)c1)C(=O)c1ccc(O)c(O)c1 [AG 538]
stability of catechol moiety [1]: unstable due to its vulnerability to oxidation
receptor autophosphorylation and activation of downstream targets PKB and Erk2 ([2]; cultured cells): inhibits receptor autophosphorylation
IC50 ([3]; cell free kinase assay, read-out: IC50 inhibition of IGF-1R): 0.061 µM

N#C/C(=C\c1ccc2oc(=O)[nH]c2c1)C(=O)c1ccc(O)c(O)c1 [AGL 2263]
PKB activation by PDGFR [4]: did not affect
activity relative to parent compound AG 538 in cell culture assays ([2]; cell culture assays): comparable to the parent compound
IC50 ([2]; intact cells, read-out: IC50 inhibiting the activation of PKB in intact cells): 6 µM
activity relative to parent compound AG 538 in cell free assays ([3]; cell free assays): somewhat less active

COc1cccc(-c2cc(=O)c3ccccc3o2)c1N [PD98059, reference compound]
effect on IGF-1-induced migration ([5]; IGF-1 100 ng/ml, A12 40 μg/ml preincubation): partially inhibited

COc1cc([C@@H]2c3cc4c(cc3[C@H](O)[C@H]3COC(=O)[C@@H]23)OCO4)cc(OC)c1OC [PPP, picropodophyllin]
effect on IR activity [6]: did not affect IR activity
LD50 [7]: > 500 mg/kg
IC50 on IGF-1R activity [8]: sub-micromolar
killing IGF-1R-positive tumors [9]: effective at killing IGF-1R-positive tumors

COc1cc([C@@H]2c3cc4c(cc3[C@H](O)[C@H]3COC(=O)[C@H]23)OCO4)cc(OC)c1OC [PPT, podophyllotoxin]
effect on IR activity [6]: did not affect IR activity
cytotoxicity [10]: cytotoxic
IC50 on IGF-1R activity [8]: sub-micromolar

COc1ccc(Cl)cc1NC(=O)Nc1cc(C)nc2ccccc12 [PQ401]
growth rate of tumors [11]: reduce the growth rate of tumors

CN1CCN([C@H]2C[C@@H](c3nc(-c4ccc5ccc(-c6ccccc6)nc5c4)c4c(N)nccn43)C2)CC1 [cis-3-[3-(4-methyl-piperazin-1-yl)-cyclobutyl]-1-(2-phenyl-quinolin-7-yl)-imidazo[1,5-a]pyrazin-8-ylamine]
IGF-1R activity in vivo [12]: inhibit IGF-1R activity in vivo
rise in blood sugar [13]: without causing any substantial rise in blood sugar

IGF-1: insulin-like growth factor 1, purchased from R&D Systems
increase in migration ([5]; IGF-1 100 ng/ml, FIG. 4): 1.8 fold
migration of MLF in response to IGF-1 ([5]; transwell filter, 4 hours, FIG. 5): increased migration
proliferation of normal mouse lung fibroblasts ([14]; IGF-1 50 or 100 ng/ml, serum-free, up to 96 h): did not increase proliferation; also recorded: increased proliferation was not observed
proliferation of activated fibroblasts derived from bleomycin-treated mice ([14]; data not shown): can induce proliferation
Akt phosphorylation [15]: phosphorylated in response to IGF-1 stimulation by 15 minutes and persisted until 60 minutes
ERK phosphorylation [15]: did not undergo phosphorylation
IRS-1 phosphorylation [15]: did not change
IRS-2 phosphorylation [15]: increased phosphorylation by 10 minutes that persisted until 30 minutes
time to IGF-1R phosphorylation [15]: ≤ 10 min

IGFBP-3: insulin-like growth factor-binding protein-3 (R&D Systems)
apoptosis of primary human lung fibroblasts [16]: increased apoptosis was not observed
apoptosis of primary lung epithelial cells [17]: increased apoptosis was not observed

siRNA 1: 5'-GGGACCCUCCUCCGGAGCCAG-3' (antisense; SEQ ID NO: 1) and 5'-GGCUCCGGAGGAGGGUCCCCG-3' (sense; SEQ ID NO: 2) (listed as RNA, chemistry not given here)
targeting of human IGF-1R mRNA [18]: effective to target human IGF-1R mRNA

siRNA 2: 5'-GGUCUUCUCACACAUCGGCUU-3' (antisense; SEQ ID NO: 3) and 5'-GCCGAUGUGUGAGAAGACCUU-3' (sense; SEQ ID NO: 4) (listed as RNA, chemistry not given here)
targeting of human IGF-1R mRNA [18]: effective to target human IGF-1R mRNA
